Entries after “also recorded” stand apart in the source; their conditions may differ.
What was measured:
VZV [1] = test: Skin organ culture topical Assay 1: dose dependence (carbopol gel); assay type: cell-based, varicella-zoster virus
Method: (§1) Place 36 mL deionized sterile water into small beaker with stir bar. Slowly waft 900 mg of carbopol (980 NF, Lot # CCONLCC013, Lubrizol Corp) into water, avoiding clumps. Add equal volume N-MCT in 20% hydroxypropyl-β-cyclodextrin (Sigma) at 2× to reach the desired concentration. Add 2 drops NaOH (18% solution) to attain a pH near 5.0. Store at 4° C. The 0.5% cidofovir gel was made in a similar manner except that cidofovir was dissolved in water. The DMSO vehicle was prepared by adding a 2% DMSO solution in water to the carbopol suspension at a 1:1 ratio. Hydroxypropyl-β-cyclodextrin (HPBCD) was prepared by mixing 5.0 g with 20 mL sterile water. Stock solution of N-MCT was prepared by dissolving 90 mg N-MCT in 9 mL 20% HPBCD and sonicating for 1 min.
A skin organ culture model was used to evaluate N-MCT as a topical treatment for VZV. Human skin explants were inoculated with VZV by scarification and treated daily from 1-4 days post infection with N-MCT (0.05, 0.5, or 5%) or cidofovir (0.5%, positive control) in a carbopol gel.
(§2) Human fetal skin was purchased from ABR and delivered by overnight courier on wet ice. The tissue was cleaned, disinfected in betadine and 70% ethanol, then cut into pieces approximately 1-cm^2. Each piece was inoculated with VZV-BAC-Luc strain that expresses firefly luciferase. Approximately 3 hours after inoculation, the pieces of skin were placed in NetWells above tissue culture medium and incubated overnight. The next day (Day 1) each piece of skin was soaked in D-luciferin for 45 min, and then scanned in the IVIS-50 instrument to measure Total Flux, which is a correlate of VZV pfu. The drug treatment began on Day 1 or later by spreading an aqueous gel (carbopol) containing N-MCT at concentrations of 0.05, 0.5, or 5% (see Assay 1 in Table 4 below). One group of skin was treated with cidofovir ([…] in carbopol gel) for a positive control. Each group contained 4-6 pieces of skin. The drug was applied daily until Day 5 (or other intervals), and then the skin pieces were scanned by IVIS to determine virus yield. […] The results were analyzed for statistical significance by ANOVA and Dunnett's post hoc test of multiple comparisons (GraphPad Prism).

VZV [2] = test: Skin organ culture topical Assay 2: delayed treatment; assay type: cell-based, varicella-zoster virus
Method: as §1, §2
This assay differs from Assay 1 in that the Vehicle was prepared with 10% HPBCD, which is the solvent for the N-MCT. Refer to Assay #2 in Table 4 above. Three groups were treated on Days 1-4 and scanned on Day 5, which is the typical assay protocol. Two groups were treated after a delay of several days, which more closely reflects a clinical scenario of zoster. All treated groups received the same preparation of 0.5% N-MCT in carbopol with 10% HPBCD. VZV yield was reduced in the Vehicle group during the treatment phase, and then rebounded. This was likely due to the effects of HPBCD, which has known antiviral properties. […] In contrast, VZV yield increased until Day 5 in the group that received no treatment until after this scan. The difference between this group and the Vehicle group was notable, since they were expected to be similar.

VZV [3] = test: Skin organ culture topical Assay 3: vehicle comparison; assay type: cell-based, varicella-zoster virus
Method: as §1
This assay compared two vehicles, 1% DMSO and 10% hydroxypropyl-β-cyclodextrin (HPBCD) in carbopol gel, and 0.5% N-MCT in either vehicle. Refer to Assay #3 in Table 4 above. Each group was treated on Days 1-4 and scanned on Day 5, which is the typical assay protocol. The skin specimens were then cultured without drug or vehicle for another 6 days (scans on Day 7 and Day 11) to observe virus rebound. VZV yield was reduced in both Vehicle groups during the treatment phase, and then rebounded. This was likely due to the effects of the slightly acidic carbopol gel. There was little difference between the two vehicles. […] Importantly, there was no rebound in the groups treated with N-MCT. In fact, VZV yield continued to decrease after the treatment stopped.

[4] = Mouse weights and tolerability
Method: CB.17 scid/beige male mice were implanted subcutaneously with human fetal skin (the same type of specimens used for the skin organ culture assay). After 3 weeks engraftment period, the skin implants were inoculated with VZV-BAC-Luc. The mice were divided into 5 groups of 12 mice: vehicle, positive control drug, N-MCT low dose, medium dose, and high dose (see FIGS. 3A, 3B, 4A and 4B). Treatment began approximately 2 hours after the inoculation surgery and was administered by oral gavage. Treatment continued twice daily (8:30 am and 8:30 pm) on Days 1-7. The mice were scanned in the IVIS-200 instrument daily from Day 1-8. The mice were weighed before the start of the study and daily during the treatment phase.
CB.17 scid/beige male mice were implanted subcutaneously with human fetal skin (the same type of specimens used for the skin organ culture assay). After 3 weeks engraftment period, the skin implants were inoculated with VZV-BAC-Luc (5×10^3 pfu/implant). The mice were divided into 5 groups of 12 mice: vehicle, positive control drug cidofovir delayed to Days 4-11, N-MCT 50 mg/kg Days 0-7, Days 4-11, or Days 7-13 (see Table 6 below). Treatment began approximately 2 hours after the inoculation surgery and was administered by oral gavage. Treatment continued twice daily (8:30 am and 8:30 pm) on schedule. […] The mice were scanned in the IVIS-200 instrument daily from Day 1-14. The mice were weighed before the start of the study and daily during the treatment phase. The antiviral effects of N-MCT were determined by assessing the VZV growth kinetics and rates (Log10 Total Flux/day).
The animals used in this experiment were SCID-beige mice purchased from Taconic (age 6-7 weeks).

[5] = 50 mg/kg oral gavage, delayed-treatment study
[6] = all doses, dose-range study in mice

Cc1cn([C@]23C[C@H](O)[C@@H](CO)[C@@H]2C3)c(=O)[nH]c1=O [N-MCT, N-methanocarbathymidine]
VZV yield compared to vehicle (VZV [1]; N-MCT 0.05, 0.5, 5% or cidofovir in carbopol gel, daily, p<0.0004): significantly reduced | VZV replication in skin explants, topical gel (VZV [1]; N-MCT 0.05-5%, cidofovir 0.5% in carbopol gel): prevented VZV replication | reduction of virus yield compared to the vehicle group (VZV [1]; all concentrations, topical carbopol gel, p=0.0004): approximately 100 fold | effective topical concentration, as low as (VZV [1]; carbopol gel with 10% hydroxypropyl-β-cyclodextrin, human skin explants): ≥ 0.05% | VZV yield, treatment on Days 3-6 (VZV [2]; 0.5% N-MCT QD 3-6 dpi, by Day 7): reduced to a similar low level | VZV yield, treatment begun on Day 5 (VZV [2]; 0.5% N-MCT QD 5-8 dpi): decreased sharply | VZV rebound after treatment on Days 1-4 (VZV [2]; 0.5% N-MCT in carbopol with 10% HPBCD): no rebound was observed | VZV yield, treatment on Days 1-4 (VZV [2]; 0.5% in carbopol QD 1-4 dpi, during and after treatment): equally reduced | effectiveness as topical treatment when VZV infection established for 3-5 days (VZV [2]; skin organ culture): highly effective | VZV yield (VZV [3]; 0.5% N-MCT in 1% DMSO or 10% HPBCD carbopol gel, Days 1-4): substantial decrease | cyclodextrin preparation compared with DMSO prep (VZV [3]; 0.5% N-MCT in 10% HPBCD vs 1% DMSO carbopol): slightly more effective | VZV rebound after treatment stopped (VZV [3]; scans on Day 7 and Day 11, no drug after Day 5): no rebound | tolerability [4, 5]: well tolerated; also recorded: well-tolerated | weight loss [4, 5]: minimal weight loss | tolerability [4, 6]: well tolerated | weight loss [4, 6]: did not cause excessive weight loss
